Experimental data as given in ChEMBL document CHEMBL5226308, “Amide-Amine Replacement in Indole-2-carboxamides Yields Potent Mycobactericidal Agents with Improved Water Solubility” (ACS Med Chem Lett, 2021).
Activity calls are given as the source filed them. The rule behind the calls is not given here.

What was measured:
[1] = tested on: Mycobacterium tuberculosis variant bovis; assay: Inhibition of MmpL3 C1932G/F644L mutant in Mycobacterium bovis BCG B47-4 assessed as reduction in TDM level at 1XMIC90 treated for 1 hr followed by incubation with [14C]acetate for 1 to 3 hrs by thin layer chromatography; details: time 2-4 hrs
[2] = tested on: Mycobacterium tuberculosis variant bovis; assay: Inhibition of MmpL3 C1932G/F644L mutant in Mycobacterium bovis BCG B47-4 assessed as increase in TMM level at 1XMIC90 treated for 1 hr followed by incubation with [14C]acetate for 1 to 3 hrs by thin layer chromatography; details: time 2-4 hrs
[3] = tested on: Mycobacterium tuberculosis variant bovis; assay: Inhibition of MmpL3 in Mycobacterium bovis BCG ATCC 35734 assessed as reduction in TDM level at 1XMIC90 treated for 1 hr followed by incubation with [14C]acetate for 1 to 3 hrs by thin layer chromatography; details: time 2-4 hrs, TDE = time-dependent effect
[4] = tested on: Mycobacterium tuberculosis variant bovis; assay: Inhibition of MmpL3 in Mycobacterium bovis BCG ATCC 35734 assessed as increase in TMM level at 1XMIC90 treated for 1 hr followed by incubation with [14C]acetate for 1 to 3 hrs by thin layer chromatography; details: time 2-4 hrs, TDE = time-dependent effect
[5] = tested on: Mycobacterium tuberculosis variant bovis; assay: Inhibition of MmpL3 in Mycobacterium bovis BCG ATCC 35734 assessed as reduction in TDM level at 4XMIC90 treated for 1 hr followed by incubation with [14C]acetate for 1 to 3 hrs by thin layer chromatography; details: time 2-4 hrs
[6] = tested on: Mycobacterium tuberculosis variant bovis; assay: Inhibition of MmpL3 in Mycobacterium bovis BCG ATCC 35734 assessed as increase in TMM level at 4XMIC90 treated for 1 hr followed by incubation with [14C]acetate for 1 to 3 hrs by thin layer chromatography; details: time 2-4 hrs

SMILES	inhibition [1]	inhibition [2]	inhibition [3]	inhibition [4]	inhibition [5]	inhibition [6]
O=C(NC1CCCCCCC1)c1cc2ccccc2s1	inactive	inactive				
c1ccc2[se]c(CNC3CCCCCCC3)cc2c1	inactive	inactive				
FC(F)(F)c1ccc2cc(CNC3CCCCCCC3)[nH]c2c1	inactive	inactive	Tde	Tde		
O=C(NC1CCCCCCC1)c1cc2ccccc2[se]1	inactive	inactive				
Cc1c(CN2CCN(C)CC2)cc(-c2ccc(Cl)cc2)n1-c1ccc(Cl)cc1	inactive	inactive	Tde	Tde		
c1ccc2sc(CNC3CCCCCCC3)cc2c1	inactive	inactive	Tde	Tde		
CC[C@@H](CO)NCCN[C@@H](CC)CO					inactive	inactive
O=C(NC1CCCCCCC1)c1cc2ccc(C(F)(F)F)cc2[nH]1	inactive	inactive	Tde	Tde		
